This assay relates to Candida albicans Wild type. In words: Microbiological challenge testing in BPW broth, graded subculture counts. Particulars: C. albicans. It is filed as cell-based. On the procedure:
The microorganisms in the table below were used in challenge tests. They were either ATCC (American Type Culture Collection) or “wild type” as indicated. Wild type organisms were problematic organisms previously isolated from chemical products.
All of the microorganisms were grown in Tryptose Soy Broth (TSB), DIFCO™ available from Becton, Dickinson and Company, containing 1% dextrose. Candida albicans and Aspergillus niger, were incubated at 22° C.+/−2° C. for at least 96 hours. All bacteria were incubated at 35° C.+/−2° C. in a humidified incubator for at least 96 hours.
Candida albicans and Aspergillus niger were also grown on Sabouraud Dextrose Agar (SABD) at 22° C. for 7 to 14 days or until full sporulation was achieved.
The following procedure was followed to determine the amount of each challenge material (inoculum broth) needed to produce a 10^8 CFU/mL challenge, which is equivalent to a final test-sample microbial concentration of 10^5 to 10^6 CFU/mL (CFU=colony forming units).
Using a sterile pipette, 1 mL of the growth from each TSB culture was transferred into tubes of 9 mL buffered water (pH 7.2 phosphate buffer) and mixed thoroughly. This was repeated to make serial 1:10 dilutions. Then, 0.1 mL of each sample and dilution was inoculated onto agar plates to produce the equivalent of a further 1:10 dilution. (C. albicans and A. niger were inoculated onto SABD and bacteria were inoculated onto Plate Count Agar (PCA), DIFCO™ available from Becton, Dickinson and Company.) (The normal volume plated for most samples was 0.1 mL. Some samples that could be very low in micro-organisms (high dilutions) were plated using 0.5 mL of inoculum, in order to produce reproducible counts.) The samples were distributed on the plates using the spread-plate technique. The spread-plate technique is carried out by spreading the sample over the entire plate surface using a sterile spreading rod while rotating the plate with a rotary auto-plater. After the inoculum was absorbed completely by the agar, each plate was inverted and incubated (fungi at 22° C.+/−2° C. and bacteria at 35° C.+/−2° C.).
After incubation for at least 48 hours, colonies that had developed on the agar plates were counted (CFU) and recorded with the corresponding dilution. If counting had to be delayed temporarily, plates were refrigerated, preferably no more than 24 hours, until they could be counted. The number of CFU/mL was determined by multiplying the plate count by the dilution factor of the plate counted.
Turbidity in Nepholemetric Turbidity Units (NTU) was measured for each serial dilution using the HF-Micro 100 Model Turbidimeter. For each microorganism, the plate counts were compared to the turbidity readings.
On the day of challenge, the Candida albicans inoculum broth was poured through nonabsorbent sterile gauze and centrifuged. The […] was then diluted with buffered water (pH 7.2 phosphate buffer) until the desired turbidity was reached. Using a hemocytometer, a determination was made whether the challenge contained the desired concentration. Dilutions were made through 1.0×10^8 and three SABD spread plates were inoculated with 0.1 mL of each dilution. The plates were incubated for at least 48 hours and challenge counts were confirmed.
Control substrates (“broth alone”) were prepared for each microorganism separately in triplicate by adding 13.5 mL of Buffered Peptone Water broth (BPW) containing 1% dextrose to each 20-mL glass tube, then adding 1.5 mL challenge material to produce a final concentration at time zero of 10^5 to 10^6 CFU/mL and a total volume of 15 mL.

As for `OCC1CCCCC1CO` (stereo not drawn) [1,2-CHDM, 1,2-cyclohexanedimethanol], the Grade by setting is: (0.5% (wt/vol), 3 day) 4 (1000 to 10,000 colonies countable (thus 10,000 CFU/mL to 100,000 CFU/mL)); (0.5% (wt/vol), 14 day) 4 (1000 to 10,000 colonies countable (thus 10,000 CFU/mL to 100,000 CFU/mL)); (0.5% (wt/vol), 30 day) 4 (1000 to 10,000 colonies countable (thus 10,000 CFU/mL to 100,000 CFU/mL)); (1.25% (wt/vol), 3 day) 4 (1000 to 10,000 colonies countable (thus 10,000 CFU/mL to 100,000 CFU/mL)); (1.25% (wt/vol), 14 day) 4 (1000 to 10,000 colonies countable (thus 10,000 CFU/mL to 100,000 CFU/mL)); (1.25% (wt/vol), 30 day) 4 (1000 to 10,000 colonies countable (thus 10,000 CFU/mL to 100,000 CFU/mL)). In addition, the Grade reads like this: (2.5% (wt/vol), 3 day) 0; (2.5% (wt/vol), 14 day) 0; (2.5% (wt/vol), 30 day) 0; (5.0% (wt/vol), 3 day) 0; (5.0% (wt/vol), 14 day) 0; (5.0% (wt/vol), 30 day) 0.
As for `OCC1CCCC(CO)C1` (stereo not drawn) [1,3-CHDM, 1,3-cyclohexanedimethanol], the Grade reads like this: (0.5% (wt/vol), 3 day) 4 (1000 to 10,000 colonies countable (thus 10,000 CFU/mL to 100,000 CFU/mL)); (0.5% (wt/vol), 14 day) 4 (1000 to 10,000 colonies countable (thus 10,000 CFU/mL to 100,000 CFU/mL)); (0.5% (wt/vol), 30 day) 4 (1000 to 10,000 colonies countable (thus 10,000 CFU/mL to 100,000 CFU/mL)); (1.25% (wt/vol), 3 day) 4 (1000 to 10,000 colonies countable (thus 10,000 CFU/mL to 100,000 CFU/mL)); (1.25% (wt/vol), 14 day) 4 (1000 to 10,000 colonies countable (thus 10,000 CFU/mL to 100,000 CFU/mL)); (1.25% (wt/vol), 30 day) 4 (1000 to 10,000 colonies countable (thus 10,000 CFU/mL to 100,000 CFU/mL)). The Grade (2.5% (wt/vol), 3 day) is given as 4 (1000 to 10,000 colonies countable (thus 10,000 CFU/mL to 100,000 CFU/mL)); the Grade (2.5% (wt/vol), 14 day) was 4 (1000 to 10,000 colonies countable (thus 10,000 CFU/mL to 100,000 CFU/mL)); the Grade (2.5% (wt/vol), 30 day) was 4 (1000 to 10,000 colonies countable (thus 10,000 CFU/mL to 100,000 CFU/mL)); the Grade (5.0% (wt/vol), 3 day) came out at 0; the Grade (5.0% (wt/vol), 14 day) is given as 2 (52 to 100 colonies counted (thus 520 to 1000 CFU/mL)); the Grade (5.0% (wt/vol), 30 day) is reported as 3 (100 to 1000 colonies (thus 1000 to 10,000 CFU/mL)).
Take `CCCCOCCO` [EB, 2-butoxyethanol]: the Grade is 4 (1000 to 10,000 colonies countable (thus 10,000 CFU/mL to 100,000 CFU/mL)) (2.5% (wt/vol), 3 day); 4 (1000 to 10,000 colonies countable (thus 10,000 CFU/mL to 100,000 CFU/mL)) (2.5% (wt/vol), 14 day); 4 (1000 to 10,000 colonies countable (thus 10,000 CFU/mL to 100,000 CFU/mL)) (2.5% (wt/vol), 30 day); 2 (52 to 100 colonies counted (thus 520 to 1000 CFU/mL)) (5.0% (wt/vol), 3 day); 0 (5.0% (wt/vol), 14 day); 0 (5.0% (wt/vol), 30 day).
Consider `O=C([O-])CN(CCN(CC(=O)[O-])CC(=O)O)CC(=O)O.[Na+].[Na+]` [EDTA, Na2EDTA], for which the Grade (0.5% (wt/vol), 3 day) was 4 (1000 to 10,000 colonies countable (thus 10,000 CFU/mL to 100,000 CFU/mL)); the Grade (0.5% (wt/vol), 14 day) was 5 (More than 10,000 colonies estimated (thus more than 100,000 CFU/mL)); the Grade (0.5% (wt/vol), 30 day) is 5 (More than 10,000 colonies estimated (thus more than 100,000 CFU/mL)); the Grade (1.25% (wt/vol), 3 day) was 4 (1000 to 10,000 colonies countable (thus 10,000 CFU/mL to 100,000 CFU/mL)); the Grade (1.25% (wt/vol), 14 day) is recorded as 4 (1000 to 10,000 colonies countable (thus 10,000 CFU/mL to 100,000 CFU/mL)); the Grade (1.25% (wt/vol), 30 day) is reported as 4 (1000 to 10,000 colonies countable (thus 10,000 CFU/mL to 100,000 CFU/mL)). The Grade by setting is: (2.5% (wt/vol), 3 day) 2 (52 to 100 colonies counted (thus 520 to 1000 CFU/mL)); (2.5% (wt/vol), 14 day) 2 (52 to 100 colonies counted (thus 520 to 1000 CFU/mL)); (2.5% (wt/vol), 30 day) 2 (52 to 100 colonies counted (thus 520 to 1000 CFU/mL)); (5.0% (wt/vol), 3 day) 1 (0 to 51 colonies counted (thus 10 to 510 CFU/mL based on 0.1-mL sample)); (5.0% (wt/vol), 14 day) 0; (5.0% (wt/vol), 30 day) 0.
Regarding `CC1(C)C(O)C(C)(C)C1O` (stereo not drawn) [TMCBD, 2,2,4,4-tetramethyl-1,3-cyclobutanediol], the Grade reads like this: (0.5% (wt/vol), 3 day) 4 (1000 to 10,000 colonies countable (thus 10,000 CFU/mL to 100,000 CFU/mL)); (0.5% (wt/vol), 14 day) 4 (1000 to 10,000 colonies countable (thus 10,000 CFU/mL to 100,000 CFU/mL)); (0.5% (wt/vol), 30 day) 4 (1000 to 10,000 colonies countable (thus 10,000 CFU/mL to 100,000 CFU/mL)); (1.25% (wt/vol), 3 day) 3 (100 to 1000 colonies (thus 1000 to 10,000 CFU/mL)); (1.25% (wt/vol), 14 day) 4 (1000 to 10,000 colonies countable (thus 10,000 CFU/mL to 100,000 CFU/mL)); (1.25% (wt/vol), 30 day) 4 (1000 to 10,000 colonies countable (thus 10,000 CFU/mL to 100,000 CFU/mL)). For the same compound, the Grade is on record as 3 (100 to 1000 colonies (thus 1000 to 10,000 CFU/mL)) (2.5% (wt/vol), 3 day); 2 (52 to 100 colonies counted (thus 520 to 1000 CFU/mL)) (2.5% (wt/vol), 14 day); 2 (52 to 100 colonies counted (thus 520 to 1000 CFU/mL)) (2.5% (wt/vol), 30 day); 2 (52 to 100 colonies counted (thus 520 to 1000 CFU/mL)) (5.0% (wt/vol), 3 day); 0 (5.0% (wt/vol), 14 day); 0 (5.0% (wt/vol), 30 day).

Values taken from patent publication US20100160454A1, “ANTIMICROBIAL AGENTS, COMPOSITIONS AND PRODUCTS CONTAINING THE SAME, AND METHODS OF USING THE COMPOSITIONS AND PRODUCTS” (Eastman Chemical Company, priority 2008, published 2010).
